Laboratory results reported in EP1510220B1 (priority 1993, dated 1994).
Like-named read-outs stand apart in the source and are kept apart here.

Key:
[1] = Proliferation of explant-derived (EX) human VSMC cultures; format: cell-based; settings: human, aortic vsmc ex cultures
Protocol: (§1) Human aortic VSMC cultures. Adult human VSMC were obtained from 6 transplant donors (either sex, age range from 3 to 54 years) using the enzyme dispersal or explant technique. In one case, the same donor (a person) was used to establish both an enzyme-dispersed (ED) and explant-derived (EX) cell culture. Prior to enzyme-dispersion or explanting treatment, human aortas were obtained within 18 h of death. The endothelium layer was removed with a scalpel blade and strips of smooth muscle cells (tunica media) were removed with forceps and chopped into small pieces (1 mm^3).
(§2) EX Cultures. The aortic pieces were washed once with D-MEM + 10% FCS, resuspended in a small volume of fresh D-MEM + 10% FCS, and transferred to culture flasks or Petri dishes. The pieces were allowed to sediment onto the plastic and were evenly distributed (≈ 4 pieces/cm^2). Cells started to grow out from the explants after 3-7 d in culture. The aortic pieces were removed during the third week in culture, and the cells adhering to the plastic were allowed to grow to confluence for a further week. The cells were then subcultured every 4-5 days by releasing them with trypsin/EDTA and diluting them 1:2 in D-MEM + 10% FCS. Subcultured cells were incubated with fresh D-MEM + 20% FCS as described for ED cultures.
(§3) Cell counting, DNA synthesis assays and assays for total and active TGF-beta were performed as described in Example 7.

human EX cultures = test: as above; format: cell-based; settings: Homo sapiens, VSMC
Protocol: as §1, §2, §3

TGF-beta1 mRNA = settings: vascular smooth muscle cells, 24 h, 10 µM
[2] = system: B054 cells (baboon smooth muscle cells); test: cells; format: cell-based
[3] = system: vascular smooth muscle cells; format: in vivo, pig; settings: 4 days post-trauma
[4] = system: Vascular smooth muscle cells
[5] = system: Balloon traumatized pig arteries; settings: in vivo

In the case of CC/C(=C(\c1ccccc1)c1ccc(OCCN(C)C)cc1)c1ccccc1 [tamoxifen, trans-2-[4-(1,2-diphenyl-1-butenyl)phenoxy]-N,N-dimethylethylamine], the MCC [1] is reported as > 33 µM, the inhibition at 0.5 µM (human EX cultures; 0.5 µM, 96 h in D-MEM + 20% FCS, vs ethanol vehicle, read-out: inhibition of the increase in cell number) is reported as 27 ± 2% and the inhibition at 5 µM (human EX cultures; 5 µM, read-out: inhibition of the increase in cell number) is reported as 33 ± 8%. The IC50 (human EX cultures; read-out: half-maximal inhibitory dose) was 30 to 100 nM and the “increase of TGF-beta1 mRNA” value (TGF-beta1 mRNA) was “approximately 10 fold”.

In the case of cytochalasin B, the “minimum effective dose (MED), DNA assay” value ([2]; 5 minute exposure) is reported as 10 µg/mL, the “minimum effective dose (MED), DNA synthesis assay” value ([2]; 24 hour exposure) is reported as 0.1 µg/mL and the BRDU labeling grade [3] is reported as 4 (4 = > 10/HPF). The morphological cytotoxicity grade ([4]; 0.01ug, 24 hrs + 24 hrs) was 0, the morphological cytotoxicity grade ([4]; 0.01ug, 24 hrs + 48 hrs) was 0 and the morphological cytotoxicity grade ([4]; 0.01ug, 24 hrs + 72 hrs) was 0. For the same compound, the morphological cytotoxicity grade ([4]; 0.01ug, 24 hrs + 96 hrs) was 0, the morphological cytotoxicity grade ([4]; 0.01ug, 24 hrs + 120 hrs) was 0 and the morphological cytotoxicity grade ([4]; 0.01ug, Continuous 6 hrs) was 0. It also gave a morphological cytotoxicity grade ([4]; 0.01ug, Continuous 24 hrs (r11, 24 hr exposure series)) of 0, a morphological cytotoxicity grade ([4]; 0.01ug, Continuous 24 hrs (r17, long term continuous series)) of 0 and a morphological cytotoxicity grade ([4]; 0.01ug, Continuous 48 hrs) of 0. The morphological cytotoxicity grade ([4]; 0.01ug, Continuous 72 hrs) was 0, the morphological cytotoxicity grade ([4]; 0.01ug, Continuous 96 hrs) was 0 and the morphological cytotoxicity grade ([4]; 0.01ug, Continuous 120 hrs) was 0. For the same compound, the morphological cytotoxicity grade ([4]; 0.01ug, Continuous 168 hrs) was 0, the morphological cytotoxicity grade ([4]; 0.01ug, Continuous 216 hrs) was 0 and the morphological cytotoxicity grade ([4]; 0.01ug, Continuous 264 hrs) was 0. It also gave a morphological cytotoxicity grade ([4]; 0.1 ug, 5 min + 2 hrs) of 0, a morphological cytotoxicity grade ([4]; 0.1 ug, 5 min + 6 hrs) of 0 and a morphological cytotoxicity grade ([4]; 0.1 ug, 5 min + 24 hrs) of 0. For the same compound, the morphological cytotoxicity grade ([4]; 0.1 ug, 5 min + 48 hrs) was 0, the morphological cytotoxicity grade ([4]; 0.1 ug, 5 min + 72 hrs) was 0 and the morphological cytotoxicity grade ([4]; 0.1 ug, 5 min + 96 hrs) was 0. It also gave a morphological cytotoxicity grade ([4]; 0.1 ug, 5 min + 120 hrs) of 0, a morphological cytotoxicity grade ([4]; 0.1 ug, 24 hrs + 24 hrs) of 0.5 and a morphological cytotoxicity grade ([4]; 0.1 ug, 24 hrs + 48 hrs) of 1. For the same compound, the morphological cytotoxicity grade ([4]; 0.1 ug, 24 hrs + 72 hrs) was 0.5, the morphological cytotoxicity grade ([4]; 0.1 ug, 24 hrs + 96 hrs) was 0 and the morphological cytotoxicity grade ([4]; 0.1 ug, 24 hrs + 120 hrs) was 0. It also gave a morphological cytotoxicity grade ([4]; 0.1 ug, Continuous 6 hrs) of 0, a morphological cytotoxicity grade ([4]; 0.1 ug, Continuous 24 hrs (r11, 24 hr exposure series)) of 1 and a morphological cytotoxicity grade ([4]; 0.1 ug, Continuous 24 hrs (r17, long term continuous series)) of 0. The morphological cytotoxicity grade ([4]; 0.1 ug, Continuous 48 hrs) was 1, the morphological cytotoxicity grade ([4]; 0.1 ug, Continuous 72 hrs) was 1 and the morphological cytotoxicity grade ([4]; 0.1 ug, Continuous 96 hrs) was 2. For the same compound, the morphological cytotoxicity grade ([4]; 0.1 ug, Continuous 120 hrs) was 1, the morphological cytotoxicity grade ([4]; 0.1 ug, Continuous 168 hrs) was 1 and the morphological cytotoxicity grade ([4]; 0.1 ug, Continuous 216 hrs) was 1. For the same compound, the morphological cytotoxicity grade ([4]; 0.1 ug, Continuous 264 hrs) was 1, the morphological cytotoxicity grade ([4]; 1 ug, 5 min + 2 hrs) was 0 and the morphological cytotoxicity grade ([4]; 1 ug, 5 min + 6 hrs) was 1. The morphological cytotoxicity grade ([4]; 1 ug, 5 min + 24 hrs) was 0.5, the morphological cytotoxicity grade ([4]; 1 ug, 5 min + 48 hrs) was 1 and the morphological cytotoxicity grade ([4]; 1 ug, 5 min + 72 hrs) was 1. For the same compound, the morphological cytotoxicity grade ([4]; 1 ug, 5 min + 96 hrs) was 1, the morphological cytotoxicity grade ([4]; 1 ug, 5 min + 120 hrs) was 1 and the morphological cytotoxicity grade ([4]; 1 ug, 24 hrs + 24 hrs) was 3. For the same compound, the morphological cytotoxicity grade ([4]; 1 ug, 24 hrs + 48 hrs) was 4, the morphological cytotoxicity grade ([4]; 1 ug, 24 hrs + 72 hrs) was 4 and the morphological cytotoxicity grade ([4]; 1 ug, 24 hrs + 96 hrs) was 4. The morphological cytotoxicity grade ([4]; 1 ug, 24 hrs + 120 hrs) was 4, the morphological cytotoxicity grade ([4]; 1 ug, Continuous 6 hrs) was 3 and the morphological cytotoxicity grade ([4]; 1 ug, Continuous 24 hrs (r11, 24 hr exposure series)) was 3. The morphological cytotoxicity grade ([4]; 1 ug, Continuous 24 hrs (r17, long term continuous series)) was 3, the morphological cytotoxicity grade ([4]; 1 ug, Continuous 48 hrs) was 3 and the morphological cytotoxicity grade ([4]; 1 ug, Continuous 72 hrs) was 3. It also gave a morphological cytotoxicity grade ([4]; 1 ug, Continuous 96 hrs) of 3, a morphological cytotoxicity grade ([4]; 1 ug, Continuous 120 hrs) of 3 and a morphological cytotoxicity grade ([4]; 1 ug, Continuous 168 hrs) of 4. It also gave a morphological cytotoxicity grade ([4]; 1 ug, Continuous 216 hrs) of 4, a morphological cytotoxicity grade ([4]; 1 ug, Continuous 264 hrs) of 4 and a cytotoxicity grade ([4]; 1 µg/ml, anti-migration/contraction effective dose, grade 1 = minimal) of 1. The morphological cytotoxicity grade ([4]; 10 ug, 5 min + 2 hrs) was 0.5, the morphological cytotoxicity grade ([4]; 10 ug, 5 min + 6 hrs) was 4 and the morphological cytotoxicity grade ([4]; 10 ug, 5 min + 24 hrs) was 4. It also gave a morphological cytotoxicity grade ([4]; 10 ug, 5 min + 48 hrs) of 4, a morphological cytotoxicity grade ([4]; 10 ug, 5 min + 72 hrs) of 4.5 and a morphological cytotoxicity grade ([4]; 10 ug, 5 min + 96 hrs) of 5. For the same compound, the morphological cytotoxicity grade ([4]; 10 ug, 5 min + 120 hrs) was 5, the “lumen area in the test region compared to the normal control segment of the same artery” value [5] was “approximately two times” and the “luminal area compared to arteries treated with other test agents or controls” value [5] was “larger luminal area”. The “toxicity to the vascular smooth muscle cells” value [5] was “appeared to be toxic”.
